Type in all cases: functional
The test system of assay [1] is Staphylococcus aureus. Kind of assay: Antibacterial activity against Staphylococcus aureus RN4220 after 20 hrs. To be noted: RN4220, 20 h.
Assay [2] deals with Staphylococcus aureus. Kind of assay: Antibacterial activity against Staphylococcus aureus TS2921 harboring ddlA Asp102Asn mutation after 20 hrs. The following applies: TS2921, 20 h.
Assay [3] concerns Staphylococcus aureus. In words: Antibacterial activity against Staphylococcus aureus TS5337 harboring ddlA Pro178Ser mutation after 20 hrs. The following applies: TS5337, 20 h.
Assay [4] concerns Staphylococcus aureus. Kind of assay: Antibacterial activity against Staphylococcus aureus TS10007 harboring ddlA Asp39Asn mutation after 20 hrs. To be noted: TS10007, 20 h.
Assay [5] concerns Staphylococcus aureus. Kind of assay: Antibacterial activity against Staphylococcus aureus TS2921 harboring ddlA Asp102Asn mutation in presence of 100 mM D-Ala-D-Ala, which complements temperature sensitivity after 20 hrs. The following applies: TS2921, 20 h.
For assay [6], the system named is Staphylococcus aureus. In words: Antibacterial activity against Staphylococcus aureus RN4220 in fifth-instar silkworm larva infection model assessed as compound concentration per gram of larva […] after 48 hrs post dose at 27 degC.
For assay [7], the system named is Staphylococcus aureus. In words: Antibacterial activity against Staphylococcus aureus TS2921 harboring ddlA Asp102Asn mutation in fifth-instar silkworm larva infection model assessed as compound concentration per gram of larva […] after 48 hrs post dose at 27 degC.
Assay [8] relates to Staphylococcus aureus. In words: Antibacterial activity against Staphylococcus aureus TS10007 harboring ddlA Asp39Asn mutation in fifth-instar silkworm larva infection model assessed as compound concentration per gram of larva […] after 48 hrs post dose at 27 degC.
Assay [9] concerns Staphylococcus aureus. In words: Antibacterial activity against Staphylococcus aureus TS2921 harboring ddlA Asp102Asn mutation and coexpressing pSddlA which complements temperature sensitivity after 20 hrs. To be noted: TS2921, 20 h.
In assay [10] the test system is Staphylococcus aureus. In words: Antibacterial activity against Staphylococcus aureus TS5337 harboring ddlA Pro178Ser mutation in fifth-instar silkworm larva infection model assessed as compound concentration per gram of larva […] after 48 hrs post dose at 27 degC.

In brackets after ≈: the same amount, converted by molar mass.

The text below walks through data of ChEMBL document CHEMBL1649581, “Evaluation of target specificity of antibacterial agents using Staphylococcus aureus ddlA mutants and D-cycloserine in a silkworm infection model” (2009).

For the molecule `O=C(N[C@H](CO)[C@H](O)c1ccc([N+](=O)[O-])cc1)C(Cl)Cl` [CHLORAMPHENICOL], the MIC against Staphylococcus aureus [1] amounted to 6.3 µg/mL (≈ 19.5 µM); in the assay on Staphylococcus aureus [2], 3.1 µg/mL (≈ 9.59 µM); against Staphylococcus aureus [3], 3.1 µg/mL (≈ 9.59 µM); with Staphylococcus aureus [4], 3.1 µg/mL (≈ 9.59 µM); in the assay with Staphylococcus aureus [5], 3.1 µg/mL. Besides, the ED50 in the assay on Staphylococcus aureus [6] worked out at 4.9 µg; with Staphylococcus aureus [7], 5.3 µg.

As for `N[C@@H]1CONC1=O` [CYCLOSERINE], the ED50 in the assay with Staphylococcus aureus [8] was below 2.2 µg; in the assay on Staphylococcus aureus [6] it was 40 µg; in the assay with Staphylococcus aureus [7], below 2.2 µg; in the assay with Staphylococcus aureus [10], 5.4 µg. Also, the MIC in the assay on Staphylococcus aureus [1] was 100 µg/mL (≈ 979 µM); against Staphylococcus aureus [2], 12.5 µg/mL (≈ 122 µM); against Staphylococcus aureus [3], 25 µg/mL (≈ 245 µM); in the assay on Staphylococcus aureus [4], 50 µg/mL (≈ 490 µM); in the assay with Staphylococcus aureus [9], above 100 µg/mL; in the assay on Staphylococcus aureus [5], 50 µg/mL.

Consider `CO[C@@]1(NC(=O)CSC(F)F)C(=O)N2C(C(=O)O)=C(CSc3nnnn3CCO)CO[C@@H]21` [FLOMOXEF], for which the ED50 turned out to be 0.048 µg in the assay on Staphylococcus aureus [8], 0.054 µg with Staphylococcus aureus [6], 0.031 µg with Staphylococcus aureus [7] and 0.031 µg with Staphylococcus aureus [10]. Also, the MIC against Staphylococcus aureus [1] came to 0.4 µg/mL (≈ 0.806 µM); with Staphylococcus aureus [2] it was 0.2 µg/mL (≈ 0.403 µM); against Staphylococcus aureus [3] it was 0.2 µg/mL (≈ 0.403 µM); against Staphylococcus aureus [4], 0.4 µg/mL (≈ 0.806 µM); against Staphylococcus aureus [9], 0.4 µg/mL (≈ 0.806 µM); in the assay with Staphylococcus aureus [5], 0.4 µg/mL.

As to `CCn1cc(C(=O)O)c(=O)c2cc(F)c(N3CCNCC3)cc21` [NORFLOXACIN], the MIC against Staphylococcus aureus [1] is 0.63 µg/mL (≈ 1.97 µM); with Staphylococcus aureus [2], 0.63 µg/mL (≈ 1.97 µM); against Staphylococcus aureus [3] it was 0.63 µg/mL (≈ 1.97 µM); in the assay with Staphylococcus aureus [4], 0.63 µg/mL (≈ 1.97 µM); against Staphylococcus aureus [9] it was 0.63 µg/mL (≈ 1.97 µM); in the assay with Staphylococcus aureus [5] it was 0.63 µg/mL.

As to `CN(C)[C@@H]1C(O)=C(C(N)=O)C(=O)[C@@]2(O)C(O)=C3C(=O)c4c(O)cccc4[C@@](C)(O)[C@H]3C[C@@H]12` [TETRACYCLINE], the ED50 in the assay with Staphylococcus aureus [8] came out at 0.35 µg; with Staphylococcus aureus [6] it was 0.68 µg; in the assay with Staphylococcus aureus [7], 0.7 µg; with Staphylococcus aureus [10], 0.75 µg. The MIC was 0.063 µg/mL (≈ 0.142 µM) against Staphylococcus aureus [1]; 0.063 µg/mL (≈ 0.142 µM) in the assay on Staphylococcus aureus [2]; 0.063 µg/mL (≈ 0.142 µM) against Staphylococcus aureus [3]; 0.063 µg/mL (≈ 0.142 µM) in the assay with Staphylococcus aureus [4]; 0.063 µg/mL (≈ 0.142 µM) in the assay with Staphylococcus aureus [9]; 0.031 µg/mL with Staphylococcus aureus [5].

`CN[C@H](CC(C)C)C(=O)N[C@H]1C(=O)N[C@@H](CC(N)=O)C(=O)N[C@H]2C(=O)N[C@H]3C(=O)N[C@H](C(=O)N[C@H](C(=O)O)c4cc(O)cc(O)c4-c4cc3ccc4O)[C@H](O)c3ccc(c(Cl)c3)Oc3cc2cc(c3O[C@@H]2O[C@H](CO)[C@@H](O)[C@H](O)[C@H]2O[C@H]2C[C@](C)(N)[C@H](O)[C@H](C)O2)Oc2ccc(cc2Cl)[C@H]1O` [VANCOMYCIN]: the ED50 is 0.25 µg with Staphylococcus aureus [8], 0.53 µg with Staphylococcus aureus [6], 0.43 µg with Staphylococcus aureus [7] and 0.45 µg in the assay on Staphylococcus aureus [10]. The MIC with Staphylococcus aureus [1] turned out to be 0.4 µg/mL (≈ 0.276 µM); in the assay with Staphylococcus aureus [2], 0.4 µg/mL (≈ 0.276 µM); in the assay with Staphylococcus aureus [3] it was 0.4 µg/mL (≈ 0.276 µM); in the assay with Staphylococcus aureus [4] it was 0.4 µg/mL (≈ 0.276 µM); against Staphylococcus aureus [9] it was 0.4 µg/mL (≈ 0.276 µM); with Staphylococcus aureus [5], 1.6 µg/mL.

One may read the MIC as the smallest concentration in the dilution series that meets the test's criterion for growth inhibition.
